According to patent US20240399175A1, “REVERSAL OF SENESCENCE BY ULTRASOUND IRRADIATION” (Board of Regents, The University of Texas System, priority 2021, published 2024):

Test system: Vero cells
Assay: Senescence induction in Vero cells by chemical stressors (growth, cell size)
Assay type: cell-based, African monkey
Settings: for cell growth of stressor-treated cells: 200 μM H2O2, 4 μM sodium butyrate, 25 μM Bleomycin Sulphate for 36-48 hours, growth over 48 h
Protocol: To test the generality of any senescent treatment, the inventors used four different methods to cause Vero cell senescence, replicative, hydrogen peroxide, sodium butyrate and Bleomycin sulfate. Senescence was measured as a decreased growth rate, increased O-gal activity, increased cell size, and secretion of pro-inflammatory factors called SASP. All four criteria were met with each type of senescent cells (FIGS. 1A to 1G). […] (FIG. 1B). There were significant differences in the size of the senescent cells with bleomycin sulfate-treated cells being the largest and replicative senescent cells the smallest (FIGS. 1C and 1D). To assay for SASP activity, the inventors cultured the senescent cells overnight and collected the supernatant from each dish. Supernatants were diluted 1:1 with fresh media and added to normal control cells. The change in normal cell number was measured after a 48 hour incubation. […] When β-galactosidase levels were measured by antibody staining, there was a relatively uniform increase in levels (FIGS. 1F and 1G). Thus, by all four criteria, the four different types of senescent cells were indeed senescent.
Senescence induction and quantification. Vero cells were treated with various stressors including 200 μM H2O2, 4 μM of sodium butyrate (SB), and 25 μM of Bleomycin Sulphate (BS) and incubated for 36-48 hours. After washing with PBS and then replacing growth medium with fresh medium, cells were incubated for 4 days to confirm the growth arrest of senescent cells. […] The inventors used four criteria to determine if cells were senescent; (1) Cell cycle arrest by determining the growth rate, (2) Increase in cell spread area, (3) Development of senescence associated secretory phonotype (SASP) in culture medium, and (4) beta-gal staining. The inventors captured images of cells with an Evos microscope at 10× magnification after treatment and 48 hours post treatment. To measure growth by the increase in cell number, 15 random images were captured, then the average number of cells were determined, which was divided by the area of one frame to get the cell density (cells/cm^2). Then this seeding density was multiplied by the total area of the dish or well to obtain the total number of cells after US treatment and after 48 hours if incubation. The total number of cells at 48 hours was divided by the total number of cells just after the treatment to determine the growth rate. If the ratio was one, there was no growth.
Senescence was detected by the beta-gal senescence staining kit as per manufacturer's protocol. […] The percentages of beta-gal positive cells were determined by counting the number of blue cells and dividing by the total number of cells. Cell spread area was determined by capturing the mages of cells with a 10× objective using an Evos microscope. […]

Compound	cell growth of stressor-treated cells	size of the senescent cells (comparison among types of senescent cells)
OO [hydrogen peroxide]	cell growth was effectively blocked	–
CCCC(=O)[O-].[Na+] [sodium butyrate]	cell growth was effectively blocked	–
Bleomycin sulfate	cell growth was effectively blocked	largest
